Measured values published in patent publication US9346815B2, “5-chloro-2-difluoromethoxyphenyl pyrazolopyrimidine compounds, compositions and methods of use thereof” (Genentech, Inc., priority 2014, dated 2016).

Experiments:
[1] = biological target: isolated recombinant JAK1 kinase domain (Homo sapiens (Human), UniProt P23458); assay: JAK1 enzyme assay (Caliper LabChip, peptide phosphorylation); type: biochemical; conditions: isolated recombinant JAK1 kinase domain, 25 μM ATP
[2] = biological target: isolated recombinant JAK2 kinase domain (Homo sapiens (Human), UniProt O60674); assay: JAK2 enzyme assay (Caliper LabChip, peptide phosphorylation); type: biochemical; conditions: 25 μM ATP
Chain of isolated recombinant JAK2 kinase domain (O60674 849-1124): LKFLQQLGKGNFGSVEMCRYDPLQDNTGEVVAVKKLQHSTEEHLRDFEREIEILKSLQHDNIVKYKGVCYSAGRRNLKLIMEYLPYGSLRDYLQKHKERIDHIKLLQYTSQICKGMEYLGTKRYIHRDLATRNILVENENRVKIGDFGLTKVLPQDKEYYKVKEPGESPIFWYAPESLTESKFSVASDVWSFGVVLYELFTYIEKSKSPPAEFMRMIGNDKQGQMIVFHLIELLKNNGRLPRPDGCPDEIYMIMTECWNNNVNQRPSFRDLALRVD

[3] = tested on: JAK1-dependent STAT6 phosphorylation downstream of IL-13 stimulation in TF-1 human erythroleukemia cells; assay: JAK1 pathway assay in TF-1 cells (IL-13-pSTAT6, MSD); type: cell-based; conditions: Homo sapiens, TF-1, TF-1 cells, read-out: IL13-pSTAT6 EC50_TF-1
Procedure, shortened: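 TF-1 cells starved of GM-CSF overnight, assayed serum-free; BEAS-2B cells in complete growth medium. Lysate pSTAT6 measured by MSD; EC50 derived.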

Chain of isolated recombinant JAK1 kinase domain (P23458 875-1153): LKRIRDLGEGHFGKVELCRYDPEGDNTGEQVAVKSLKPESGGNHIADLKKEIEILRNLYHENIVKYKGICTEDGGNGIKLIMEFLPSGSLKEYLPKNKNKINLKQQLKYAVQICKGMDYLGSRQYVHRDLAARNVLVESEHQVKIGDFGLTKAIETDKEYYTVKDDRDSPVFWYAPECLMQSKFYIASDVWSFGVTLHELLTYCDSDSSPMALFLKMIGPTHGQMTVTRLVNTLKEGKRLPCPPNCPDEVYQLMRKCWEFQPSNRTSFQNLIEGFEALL

Row | Compound | Ki [1] [nM] | Ki [2] [nM] | EC50 [3] [nM]
1 | CN(Cc1ccc(C(C)(C)C)cc1)C1CCN(C(=O)Cn2cc(NC(=O)c3cnn4cccnc34)c(-c3cc(Cl)ccc3OC(F)F)n2)CC1 [Example 120, N-[1-[2-[4-[(4-tert-butylphenyl)methyl-methyl-amino]-1-piperidyl]-2-oxo-ethyl]-3-[5-chloro-2-(difluoromethoxy)phenyl]pyrazol-4-yl]pyrazolo[1,5-a]pyrimidine-3-carboxamide] | 0.3 | 0.23 | 118
2 | CN(Cc1ccc(Cl)c(Cl)c1)C1CCN(C(=O)Cn2cc(NC(=O)c3cnn4cccnc34)c(-c3cc(Cl)ccc3OC(F)F)n2)CC1 [Example 121, N-[3-[5-chloro-2-(difluoromethoxy)phenyl]-1-[2-[4-[(3,4-dichlorophenyl)methyl-methyl-amino]-1-piperidyl]-2-oxo-ethyl]pyrazol-4-yl]pyrazolo[1,5-a]pyrimidine-3-carboxamide] | 0.24 | 0.31 | 140
3 | CC(C)Oc1ccc(CN(C)C2CCN(C(=O)Cn3cc(NC(=O)c4cnn5cccnc45)c(-c4cc(Cl)ccc4OC(F)F)n3)CC2)cc1 [Example 125, N-[3-[5-chloro-2-(difluoromethoxy)phenyl]-1-[2-[4-[(4-isopropoxyphenyl)methyl-methyl-amino]-1-piperidyl]-2-oxo-ethyl]pyrazol-4-yl]pyrazolo[1,5-a]pyrimidine-3-carboxamide] | 0.61 | 2.2 | 11.7
4 | CCCCOc1ccc(CN(C)C2CCN(C(=O)Cn3cc(NC(=O)c4cnn5cccnc45)c(-c4cc(Cl)ccc4OC(F)F)n3)CC2)cc1 [Example 127, N-[1-[2-[4-[(4-butoxyphenyl)methyl-methyl-amino]-1-piperidyl]-2-oxo-ethyl]-3-[5-chloro-2-(difluoromethoxy)phenyl]pyrazol-4-yl]pyrazolo[1,5-a]pyrimidine-3-carboxamide] | 0.78 | 2.44 | 72.4
5 | Cc1ccc(CN(C)C2CCN(C(=O)Cn3cc(NC(=O)c4cnn5cccnc45)c(-c4cc(Cl)ccc4OC(F)F)n3)CC2)c(C)c1 [Example 129, N-[3-[5-chloro-2-(difluoromethoxy)phenyl]-1-[2-[4-[(2,4-dimethylphenyl)methyl-methyl-amino]-1-piperidyl]-2-oxo-ethyl]pyrazol-4-yl]pyrazolo[1,5-a]pyrimidine-3-carboxamide] | 1.14 | 3.33 | 14.2
6 | CN(Cc1ccc2ccccc2c1)C1CCN(C(=O)Cn2cc(NC(=O)c3cnn4cccnc34)c(-c3cc(Cl)ccc3OC(F)F)n2)CC1 [Example 130, N-[3-[5-chloro-2-(difluoromethoxy)phenyl]-1-[2-[4-[methyl(2-naphthylmethyl)amino]-1-piperidyl]-2-oxo-ethyl]pyrazol-4-yl]pyrazolo[1,5-a]pyrimidine-3-carboxamide] | 1.1 | 2.91 | 32.3
7 | CN(Cc1ccc(F)c(Br)c1)C1CCN(C(=O)Cn2cc(NC(=O)c3cnn4cccnc34)c(-c3cc(Cl)ccc3OC(F)F)n2)CC1 [Example 131, N-[1-[2-[4-[(3-bromo-4-fluoro-phenyl)methyl-methyl-amino]-1-piperidyl]-2-oxo-ethyl]-3-[5-chloro-2-(difluoromethoxy)phenyl]pyrazol-4-yl]pyrazolo[1,5-a]pyrimidine-3-carboxamide] | 1.07 | 2.68 | 23.7
8 | O=C(Nc1cn(CC(=O)N2CCC(N3Cc4ccc(Cl)cc4C3)CC2)nc1-c1cc(Cl)ccc1OC(F)F)c1cnn2cccnc12 [Example 135, N-[3-[5-chloro-2-(difluoromethoxy)phenyl]-1-[2-[4-(5-chloroisoindolin-2-yl)-1-piperidyl]-2-oxo-ethyl]pyrazol-4-yl]pyrazolo[1,5-a]pyrimidine-3-carboxamide] | 0.52 | 1.15 | 26.9
9 | CN(C)C1CCN(C(=O)Cn2cc(NC(=O)c3c(N)nn4cccnc34)c(-c3cc(Cl)ccc3OC(F)F)n2)C1 (stereo not drawn) [Example 136, 2-amino-N-[3-[5-chloro-2-(difluoromethoxy)phenyl]-1-[2-[3-(dimethylamino)pyrrolidin-1-yl]-2-oxo-ethyl]pyrazol-4-yl]pyrazolo[1,5-a]pyrimidine-3-carboxamide] | 0.64 | 0.25 | 36.7
10 | CN(C)C1CCN(C(=O)Cn2cc(NC(=O)c3c(N)nn4cccnc34)c(-c3cc(Cl)ccc3OC(F)F)n2)CC1 [Example 139, 2-amino-N-[3-[5-chloro-2-(difluoromethoxy)phenyl]-1-[2-[4-(dimethylamino)-1-piperidyl]-2-oxo-ethyl]pyrazol-4-yl]pyrazolo[1,5-a]pyrimidine-3-carboxamide] | 0.78 | 0.36 | 40.2

Next, values leading:

Row | Ki [1] [nM] | Ki [2] [nM] | EC50 [3] [nM] | Compound
11 | 3.76 | 7.04 | 23.3 | O=C(Nc1cn(CC(=O)N2CCC(N(Cc3ccccc3)CC(F)(F)F)CC2)nc1-c1cc(Cl)ccc1OC(F)F)c1cnn2cccnc12 [Example 116, N-[1-[2-[4-[benzyl(2,2,2-trifluoroethyl)amino]-1-piperidyl]-2-oxo-ethyl]-3-[5-chloro-2-(difluoromethoxy)phenyl]pyrazol-4-yl]pyrazolo[1,5-a]pyrimidine-3-carboxamide]
12 | 1.21 | 0.51 | 20.8 | CN(Cc1ccc(Br)cc1)C1CCN(C(=O)Cn2cc(NC(=O)c3cnn4cccnc34)c(-c3cc(Cl)ccc3OC(F)F)n2)CC1 [Example 119, N-[1-[2-[4-[(4-bromophenyl)methyl-methyl-amino]-1-piperidyl]-2-oxo-ethyl]-3-[5-chloro-2-(difluoromethoxy)phenyl]pyrazol-4-yl]pyrazolo[1,5-a]pyrimidine-3-carboxamide]
13 | 0.27 | 0.17 | 24.9 | CN(Cc1cccc(Br)c1)C1CCN(C(=O)Cn2cc(NC(=O)c3cnn4cccnc34)c(-c3cc(Cl)ccc3OC(F)F)n2)CC1 [Example 122, N-[1-[2-[4-[(3-bromophenyl)methyl-methyl-amino]-1-piperidyl]-2-oxo-ethyl]-3-[5-chloro-2-(difluoromethoxy)phenyl]pyrazol-4-yl]pyrazolo[1,5-a]pyrimidine-3-carboxamide]
14 | 0.63 | 1.8 | 14.9 | CN(Cc1ccc(Cl)cc1)C1CCN(C(=O)Cn2cc(NC(=O)c3cnn4cccnc34)c(-c3cc(Cl)ccc3OC(F)F)n2)CC1 [Example 126, N-[3-[5-chloro-2-(difluoromethoxy)phenyl]-1-[2-[4-[(4-chlorophenyl)methyl-methyl-amino]-1-piperidyl]-2-oxo-ethyl]pyrazol-4-yl]pyrazolo[1,5-a]pyrimidine-3-carboxamide]
15 | 1.12 | 3.09 | 42.5 | CN(Cc1cccc(C(F)(F)F)c1)C1CCN(C(=O)Cn2cc(NC(=O)c3cnn4cccnc34)c(-c3cc(Cl)ccc3OC(F)F)n2)CC1 [Example 128, N-[3-[5-chloro-2-(difluoromethoxy)phenyl]-1-[2-[4-[methyl-[[3-(trifluoromethyl)phenyl]methyl]amino]-1-piperidyl]-2-oxo-ethyl]pyrazol-4-yl]pyrazolo[1,5-a]pyrimidine-3-carboxamide]
